The assay relates to auto-antibodies bound to the affinity chromatographic column. Nature of the assay: Eluted auto-antibodies tested for preferential binding to peptide 1 or peptide 2 bound to a solid phase. On the set-up: species or system human. As for the experimental part: After elution from the affinity matrix, the auto-antibodies bound to the affinity chromatographic column were tested for preferential binding to peptide 1 or peptide 2 by means of peptide 1 and peptide 2 bound to a solid phase. Auto-antibody type 1 prefers the binding of peptide 1, and auto-antibody type 2 prefers the binding of peptide 2.

HWWRAESDEARRSYNDPKC [Peptide 2]: the “preferential binding of auto-antibodies to peptide 1 or peptide 2” value (auto-antibodies of person 2, peptides bound to a solid phase) is reported as “preferably bind”. For TGSFFCELWTSGKK [Peptide 1], under “auto-antibodies of person 1, peptides bound to a solid phase”, the “preferential binding of auto-antibodies to peptide 1 or peptide 2” value is recorded as “preferably bind”.

The values are drawn from patent US6994970B1, “Peptides for combating the autoantibodies that are responsible for dilatative cardiomyopathy (DCM)” (Fresenius Medical Care Affina GmbH, priority 1999, dated 2006).
